#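 Step 1: Grow cells in 96-well plates. Step 2: Expose to compound for 48 hours at 5 concentrations. Step 3: Interpolate endpoints linearly; if unreached, use highest concentration. GI50 = concentration required for 50% inhibition of growth.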 The source made the active and inactive calls. Rule as the data show it: active = GI50 up to about 1.1 µM and inactive = higher.
# What was measured:
# Test in all cases: inhibition of tumour cell growth, NCI panel, 48 h
# BT-549 = system: BT-549
# U-251 = system: U-251
# SR = system: SR
# PC-3 = system: PC-3
# NCI-H226 = system: NCI-H226
# MCF7 = system: MCF7
# IGROV-1 = system: IGROV-1
# SK-OV-3 = system: SK-OV-3
# SF-539 = system: SF-539
# DU-145 = system: DU-145
# MDA-MB-231 = system: MDA-MB-231
# MDA-MB-435 = system: MDA-MB-435
# K562 = system: K562
# NCI-H23 = system: NCI-H23
# EKVX = system: EKVX
# M14 = system: M14
# A549 = system: A549
# OVCAR-3 = system: OVCAR-3
# HOP-92 = system: HOP-92
# SF-295 = system: SF-295
# HCC 2998 = system: HCC 2998
# RXF 393 = system: RXF 393
# SK-MEL-5 = system: SK-MEL-5
# SNB-75 = system: SNB-75
# NCI-H522 = system: NCI-H522
# SW-620 = system: SW-620
# CCRF-CEM = system: CCRF-CEM
# KM12 = system: KM12
# CAKI-1 = system: CAKI-1
# SN12C = system: SN12C
# 786-0 = system: 786-0
# SF-268 = system: SF-268
# COLO 205 = system: COLO 205
# A498 = system: A498
# NCI/ADR-RES = system: NCI/ADR-RES
# RPMI-8226 = system: RPMI-8226
# HT-29 = system: HT-29
# MDA-N = system: MDA-N
# SNB-19 = system: SNB-19
# UACC-62 = system: UACC-62
# OVCAR-5 = system: OVCAR-5
# Malme-3M = system: Malme-3M
# NCI-H460 = system: NCI-H460
# MOLT-4 = system: MOLT-4
# SK-MEL-2 = system: SK-MEL-2
# UACC-257 = system: UACC-257
# HOP-62 = system: HOP-62
# ACHN = system: ACHN
# TK-10 = system: TK-10
# Hs-578T = system: Hs-578T
# UO-31 = system: UO-31
# OVCAR-8 = system: OVCAR-8
# OVCAR-4 = system: OVCAR-4
# HCT-15 = system: HCT-15
structure (smiles),measurement,setting,value
CCNC(=O)C1CCCN1C(=O)C(CCCN=C(N)N)NC(=O)C(CC(C)C)NC(=O)C(Cc1c[nH]c2ccccc12)NC(=O)C(Cc1ccc(O)cc1)NC(=O)C(CO)NC(=O)C(Cc1c[nH]c2ccccc12)NC(=O)C(Cc1c[nH]cn1)NC(=O)C1CCC(=O)N1 (centres undefined),GI50,BT-549,> 100 µM (inactive)
same,GI50,U-251,> 100 µM (inactive)
same,GI50,SR,> 100 µM (inactive)
same,GI50,PC-3,> 100 µM (inactive)
same,GI50,NCI-H226,> 100 µM (inactive)
same,GI50,MCF7,> 100 µM (inactive)
same,GI50,IGROV-1,> 100 µM (inactive)
same,GI50,SK-OV-3,> 100 µM (inactive)
same,GI50,SF-539,> 100 µM (inactive)
same,GI50,DU-145,> 100 µM (inactive)
same,GI50,MDA-MB-231,> 100 µM (inactive)
same,GI50,MDA-MB-435,> 100 µM (inactive)
same,GI50,K562,> 100 µM (inactive)
same,GI50,NCI-H23,> 100 µM (inactive)
same,GI50,EKVX,> 100 µM (inactive)
same,GI50,M14,> 100 µM (inactive)
same,GI50,A549,> 100 µM (inactive)
same,GI50,OVCAR-3,> 100 µM (inactive)
same,GI50,HOP-92,> 100 µM (inactive)
same,GI50,SF-295,> 100 µM (inactive)
same,GI50,HCC 2998,> 100 µM (inactive)
same,GI50,RXF 393,> 100 µM (inactive)
same,GI50,SK-MEL-5,> 100 µM (inactive)
same,GI50,SNB-75,> 100 µM (inactive)
same,GI50,NCI-H522,> 100 µM (inactive)
same,GI50,SW-620,> 100 µM (inactive)
same,GI50,CCRF-CEM,> 100 µM (inactive)
same,GI50,KM12,> 100 µM (inactive)
same,GI50,CAKI-1,> 100 µM (inactive)
same,GI50,SN12C,> 100 µM (inactive)
same,GI50,786-0,> 100 µM (inactive)
same,GI50,SF-268,> 100 µM (inactive)
same,GI50,COLO 205,> 100 µM (inactive)
same,GI50,A498,> 100 µM (inactive)
same,GI50,NCI/ADR-RES,> 100 µM (inactive)
same,GI50,RPMI-8226,> 100 µM (inactive)
same,GI50,HT-29,> 100 µM (inactive)
same,GI50,MDA-N,> 100 µM (inactive)
same,GI50,SNB-19,> 100 µM (inactive)
same,GI50,UACC-62,> 100 µM (inactive)
same,GI50,OVCAR-5,> 100 µM (inactive)
same,GI50,Malme-3M,> 100 µM (inactive)
same,GI50,NCI-H460,> 100 µM (inactive)
same,GI50,MOLT-4,> 100 µM (inactive)
same,GI50,SK-MEL-2,> 100 µM (inactive)
same,GI50,UACC-257,> 100 µM (inactive)
same,GI50,HOP-62,> 100 µM (inactive)
same,GI50,ACHN,> 100 µM (inactive)
same,GI50,TK-10,> 100 µM (inactive)
same,GI50,Hs-578T,> 100 µM (inactive)
same,GI50,UO-31,> 100 µM (inactive)
same,GI50,OVCAR-8,> 100 µM (inactive)
same,GI50,OVCAR-4,> 100 µM (inactive)
same,GI50,HCT-15,> 100 µM

# From ChEMBL document CHEMBL1201862, “PubChem BioAssay data set” (2004)
